Converted amounts (≈) assume the structure as drawn. Like-named read-outs stand apart in the source and are kept apart here.
Columns and labels:
[1] = tested on: Enterococcus faecalis 2041; format: cell-based
Method: (§1) The MIC's in Table VII were determined by standard agar-dilution assays.

Enterococcus faecium X66 = format: cell-based
Method: as §1

[2] = tested on: Staphylococcus aureus V41; format: cell-based
Method: as §1

[3] = tested on: Staphylococcus aureus X1.1; format: cell-based
Method: as §1

[4] = tested on: Staphylococcus aureus X400; format: cell-based
Method: as §1

[5] = tested on: Staphylococcus epidermidis 222; format: cell-based
Method: as §1

[6] = tested on: Staphylococcus epidermidis 270; format: cell-based
Method: as §1

[7] = tested on: Streptococcus pyogenes C203; format: cell-based
Method: as §1

[8] = tested on: Streptococcus pneumoniae Park 1; experiment: microbe, parasite or virus in culture; format: cell-based
Method: as §1

[9] = tested on: Peptostreptococcus anaerobius; experiment: Activity against anaerobic bacteria, agar-dilution MIC; format: cell-based
[10] = tested on: Peptostreptococcus intermedius; experiment: as above; format: cell-based
Propionibacterium acnes = experiment: as above; format: cell-based
Bacteriodes fragilis = experiment: as above; format: cell-based
[11] = tested on: Bacteriodes melaninogenicus; experiment: as above; format: cell-based
Bacteroides corrodens = experiment: as above; format: cell-based
Staphylococcus aureus = experiment: In vivo activity against experimentally-induced infection in mice; details: doses administered subcutaneously to mice 1 and 4 hours postinfection
Method: (§2) The A83850 antibiotics have also shown in vivo antimicrobial activity against experimentally-induced infections in laboratory animals. When two doses of test compound were administered to mice experimentally infected with the test organism, the activity observed was measured as an ED50 value [effective dose in mg/kg to protect 50% of the test animals: see Warren Wick, et al., J. Bacteriol. 81, 233-235 (1961)].
(§3) ^a mg/kg × 2; doses administered subcutaneously to mice 1 and 4

Streptococcus pneumoniae = experiment: as above; details: doses administered subcutaneously to mice 1 and 4 hours postinfection
Method: as §2, §3

Streptococcus pyogenes = experiment: as above; details: doses administered subcutaneously to mice 1 and 4 hours postinfection
Method: as §2, §3

Clostridium perfringens [12] = details: anaerobe, agar dilution, read after 24-hour incubation
Clostridium septicum [13] = details: anaerobe, agar dilution, read after 24-hour incubation
Eubacterium aerofaciens [14] = details: anaerobe, agar dilution, read after 24-hour incubation
Fusobacterium symbiosum [15] = details: anaerobe, agar dilution, read after 24-hour incubation
[16] = tested on: Fusobacterium necrophorum; details: anaerobe, agar dilution, read after 24-hour incubation
Clostridium difficile = experiment: Activity against anaerobic bacteria, agar-dilution MIC
[17] = tested on: Peptococcus asaccharolyticus; experiment: as above
Peptococcus prevoti = experiment: as above
[18] = tested on: Bacteriodes thetaiotaomicron; experiment: as above
Bacteriodes vulgatis = experiment: as above
[19] = tested on: Culture A83850 (Amycolatopsis albus NRRL 18532); experiment: Resistance of culture A83850 to antibiotics, sensitivity discs on seeded ISP No. 2 agar plates; format: cell-based; details: disc content printed per antibiotic
Method: Resistance to antibiotics was measured by padding antibiotic sensitivity discs onto the surface of seeded ISP No. 2 agar plates.

Clostridium perfringens [20] = experiment: microbe, parasite or virus in culture; details: 24 h
Clostridium septicum [21] = experiment: microbe, parasite or virus in culture; details: 24 h
Eubacterium aerofaciens [22] = experiment: microbe, parasite or virus in culture; details: Collinsella aerofaciens, 24 h
Fusobacterium symbiosum [23] = experiment: microbe, parasite or virus in culture; details: 24 h
[24] = tested on: Fusobacterium necrophorum; experiment: microbe, parasite or virus in culture; details: 24 h
[25] = Enterococcus faecalis 2041, agar dilution
[26] = Enterococcus faecium X66, agar dilution
[27] = Staphylococcus aureus V41, agar dilution
[28] = Staphylococcus aureus X1.1, agar dilution
[29] = Staphylococcus aureus X400, agar dilution
[30] = Staphylococcus epidermidis 222, agar dilution
[31] = Staphylococcus epidermidis 270, agar dilution
[32] = Streptococcus pyogenes C203, agar dilution
[33] = Streptococcus pneumoniae Park 1, agar dilution
[34] = anaerobe, agar dilution, read after 24-hour incubation
[35] = Peptostreptococcus intermedius, anaerobe, agar dilution, read after 24-hour incubation
[36] = Propionibacterium acnes, anaerobe, agar dilution, read after 24-hour incubation
[37] = Bacteriodes fragilis, anaerobe, agar dilution, read after 24-hour incubation
[38] = Bacteriodes melaninogenicus, anaerobe, agar dilution, read after 24-hour incubation
[39] = Bacteroides corrodens, anaerobe, agar dilution, read after 24-hour incubation
[40] = Clostridium difficile, anaerobe, agar dilution, read after 24-hour incubation
[41] = Peptococcus asaccharolyticus, anaerobe, agar dilution, read after 24-hour incubation
[42] = Peptococcus prevoti, anaerobe, agar dilution, read after 24-hour incubation
[43] = Bacteriodes thetaiotaomicron, anaerobe, agar dilution, read after 24-hour incubation
[44] = Bacteriodes vulgatis, anaerobe, agar dilution, read after 24-hour incubation

CC(C)C[C@H](C(=O)N[C@H]1C(=O)N[C@@H](CC(N)=O)C(=O)N[C@H]2C(=O)N[C@H]3C(=O)N[C@H](C(=O)N[C@H](C(=O)O)c4cc(O)cc(O)c4-c4cc3ccc4O)[C@H](O)c3ccc(c(Cl)c3)Oc3cc2cc(c3O[C@@H]2O[C@H](CO)[C@@H](O)[C@H](O)[C@H]2O[C@H]2C[C@](C)(N)C(=O)[C@H](C)O2)Oc2ccc(cc2Cl)[C@H]1O)N(C)C [A83850A]
MIC [1, 25]: 8.0 µg/mL (≈ 5.47 µM)
MIC (Enterococcus faecium X66; [26]): 2.0 µg/mL (≈ 1.37 µM)
MIC [2, 27]: 2.0 µg/mL (≈ 1.37 µM)
MIC [3, 28]: 1.0 µg/mL (≈ 0.684 µM)
MIC [4, 29]: 2.0 µg/mL (≈ 1.37 µM)
MIC [5, 30]: 2.0 µg/mL (≈ 1.37 µM)
MIC [6, 31]: 4.0 µg/mL (≈ 2.74 µM)
MIC [7, 32]: 1.0 µg/mL (≈ 0.684 µM)
MIC [8, 33]: 1.0 µg/mL (≈ 0.684 µM)
MIC [9, 34]: 32 µg/mL (≈ 21.9 µM)
MIC [10, 35]: 2.0 µg/mL (≈ 1.37 µM)
MIC (Propionibacterium acnes; [36]): 8.0 µg/mL (≈ 5.47 µM)
MIC (Bacteriodes fragilis; [37]): 16.0 to 32.0 µg/mL
MIC [11, 38]: 16 µg/mL (≈ 10.9 µM)
MIC (Bacteroides corrodens; [39]): 32 µg/mL (≈ 21.9 µM)
ED50 Value (Staphylococcus aureus): 2.87 mg/kg × 2
ED50 Value (Streptococcus pneumoniae): 2.73 mg/kg × 2
ED50 Value (Streptococcus pyogenes): 3.62 mg/kg × 2
MIC (Clostridium perfringens [12]): 2 µg/mL (≈ 1.37 µM)
MIC (Clostridium septicum [13]): 2 µg/mL (≈ 1.37 µM)
MIC (Eubacterium aerofaciens [14]): 2 µg/mL (≈ 1.37 µM)
MIC (Fusobacterium symbiosum [15]): 4 µg/mL (≈ 2.74 µM)
MIC [16]: 1.0 µg/mL (≈ 0.684 µM)
MIC (Clostridium difficile; [40]): 4 µg/mL (≈ 2.74 µM)
MIC [17, 41]: 16 µg/mL (≈ 10.9 µM)
MIC (Peptococcus prevoti; [42]): 16 µg/mL (≈ 10.9 µM)
MIC [18, 43]: 64 µg/mL (≈ 43.8 µM)
MIC (Bacteriodes vulgatis; [44]): 16 µg/mL (≈ 10.9 µM)

CN[C@H](CC(C)C)C(=O)N[C@H]1C(=O)N[C@@H](CC(N)=O)C(=O)N[C@H]2C(=O)N[C@H]3C(=O)N[C@H](C(=O)N[C@H](C(=O)O)c4cc(O)cc(O)c4-c4cc3ccc4O)[C@H](O)c3ccc(c(Cl)c3)Oc3cc2cc(c3O[C@@H]2O[C@H](CO)[C@@H](O)[C@H](O)[C@H]2O[C@H]2C[C@](C)(N)C(=O)[C@H](C)O2)Oc2ccc(cc2Cl)[C@H]1O [A83850B]
MIC [1, 25]: 4.0 µg/mL (≈ 2.76 µM)
MIC (Enterococcus faecium X66; [26]): 1.0 µg/mL (≈ 0.691 µM)
MIC [2, 27]: 1.0 µg/mL (≈ 0.691 µM)
MIC [3, 28]: 0.5 µg/mL (≈ 0.345 µM)
MIC [4, 29]: 1.0 µg/mL (≈ 0.691 µM)
MIC [5, 30]: 1.0 µg/mL (≈ 0.691 µM)
MIC [6, 31]: 1.0 µg/mL (≈ 0.691 µM)
MIC [7, 32]: 0.5 µg/mL (≈ 0.345 µM)
MIC [8, 33]: 0.125 µg/mL (≈ 0.0864 µM)
MIC [9, 34]: 16 µg/mL (≈ 11.1 µM)
MIC [10, 35]: 2.0 µg/mL (≈ 1.38 µM)
MIC (Propionibacterium acnes; [36]): 8.0 µg/mL (≈ 5.53 µM)
MIC (Bacteriodes fragilis; [37]): 16.0 to 32.0 µg/mL
MIC [11, 38]: 32 µg/mL (≈ 22.1 µM)
MIC (Bacteroides corrodens; [39]): 32 µg/mL (≈ 22.1 µM)
ED50 Value (Staphylococcus aureus): 2.87 mg/kg × 2
ED50 Value (Streptococcus pneumoniae): 0.98 mg/kg × 2
ED50 Value (Streptococcus pyogenes): 2.19 mg/kg × 2
MIC (Clostridium perfringens [12]): 2 µg/mL (≈ 1.38 µM)
MIC (Clostridium septicum [13]): 1.0 µg/mL (≈ 0.691 µM)
MIC (Eubacterium aerofaciens [14]): 2 µg/mL (≈ 1.38 µM)
MIC (Fusobacterium symbiosum [15]): 2 µg/mL (≈ 1.38 µM)
MIC [16]: 1.0 µg/mL (≈ 0.691 µM)
MIC (Clostridium difficile; [40]): 2 µg/mL (≈ 1.38 µM)
MIC [17, 41]: 2 µg/mL (≈ 1.38 µM)
MIC (Peptococcus prevoti; [42]): 2 µg/mL (≈ 1.38 µM)
MIC [18, 43]: 64 µg/mL (≈ 44.2 µM)
MIC (Bacteriodes vulgatis; [44]): 16 µg/mL (≈ 11.1 µM)

CN[C@H](CC(C)C)C(=O)N[C@H]1C(=O)N[C@@H](CC(N)=O)C(=O)N[C@H]2C(=O)N[C@H]3C(=O)N[C@H](C(=O)N[C@H](C(=O)O)c4cc(O)cc(O)c4-c4cc3ccc4O)[C@H](O)c3ccc(c(Cl)c3)Oc3cc2cc(c3O[C@@H]2O[C@H](CO)[C@@H](O)[C@H](O)[C@H]2O[C@H]2C[C@](C)(N)[C@H](O)[C@H](C)O2)Oc2ccc(cc2Cl)[C@H]1O [Vancomycin, vancomycin, reference compound]
MIC ([1]; Enterococcus faecalis, 2041): 4 µg/mL (≈ 2.76 µM)
MIC (Enterococcus faecium X66; Enterococcus faecium, X66): 1 µg/mL (≈ 0.69 µM)
MIC ([2]; Staphylococcus aureus, V41): 0.5 µg/mL (≈ 0.345 µM)
MIC ([3]; Staphylococcus aureus, X1.1): 0.5 µg/mL (≈ 0.345 µM)
MIC ([4]; Staphylococcus aureus, X400): 1 µg/mL (≈ 0.69 µM)
MIC ([5]; Staphylococcus epidermidis, 222): 1 µg/mL (≈ 0.69 µM)
MIC ([6]; Staphylococcus epidermidis, 270): 1 µg/mL (≈ 0.69 µM)
MIC ([7]; Streptococcus pyogenes, C203): 0.5 µg/mL (≈ 0.345 µM)
MIC ([8]; Streptococcus pneumoniae, PARK1): 0.5 µg/mL (≈ 0.345 µM)
MIC ([9]; 24 h): 1 µg/mL (≈ 0.69 µM)
MIC ([10]; Peptostreptococcus, 24 h): 2 µg/mL (≈ 1.38 µM)
MIC (Propionibacterium acnes; Cutibacterium acnes, 24 h): 4 µg/mL (≈ 2.76 µM)
MIC (Bacteriodes fragilis; 24 h): 16 to 32 µg/mL (≈ 11 to 22.1 µM)
MIC ([11]; 24 h): 128 µg/mL (≈ 88.3 µM)
MIC (Bacteroides corrodens; Eikenella corrodens, 24 h): 32 µg/mL (≈ 22.1 µM)
ED50 Value (Staphylococcus aureus): 1.43 mg/kg × 2
ED50 Value (Streptococcus pneumoniae): 0.67 mg/kg × 2
ED50 Value (Streptococcus pyogenes): 0.98 mg/kg × 2
Resistance or inhibition of culture A83850 by antibiotic disc [19]: inhibited
MIC (Clostridium perfringens [20]): 2 µg/mL (≈ 1.38 µM)
MIC (Clostridium septicum [21]): 2 µg/mL (≈ 1.38 µM)
MIC (Eubacterium aerofaciens [22]): 8 µg/mL (≈ 5.52 µM)
MIC (Fusobacterium symbiosum [23]): 2 µg/mL (≈ 1.38 µM)
MIC [24]: 1 µg/mL (≈ 0.69 µM)
MIC (Clostridium difficile; Clostridioides difficile, 24 h): 2 µg/mL (≈ 1.38 µM)
MIC ([17]; Peptoniphilus asaccharolyticus, 24 h): 4 µg/mL (≈ 2.76 µM)
MIC (Peptococcus prevoti; 24 h): 4 µg/mL (≈ 2.76 µM)
MIC ([18]; 24 h): 64 µg/mL (≈ 44.2 µM)
MIC (Bacteriodes vulgatis; 24 h): 16 µg/mL (≈ 11 µM)

From patent US5187082A, “Process for producing A83850 antibiotics” (Eli Lilly and Company, priority 1990, dated 1993)
